Assay results reported in the NIST ThermoML archive (doi:10.1021/acs.jced.5b00941).

Assays:
[1] = mn = molality of the nth substance listed, in mol/kg; conditions: 100 kPa, Liquid; for viscosity: Falling or rolling sphere viscometry; for mass density: Vibrating tube method
[2] = 100 kPa, Liquid, Falling or rolling sphere viscometry

[Cl-].[K+] [potassium chloride] + O
[1]
Conditions	mass density, 288.15 K [kg/m3]	mass density, 293.15 K [kg/m3]	mass density, 298.15 K [kg/m3]	mass density, 303.15 K [kg/m3]	mass density, 308.15 K [kg/m3]	viscosity, 288.15 K [mPa·s]	viscosity, 293.15 K [mPa·s]	viscosity, 298.15 K [mPa·s]	viscosity, 303.15 K [mPa·s]	viscosity, 308.15 K [mPa·s]
m1 = 0.1	1003.85	1002.92	1001.71	1000.28	998.631	1.145	1.01	0.896	0.801	0.722
m1 = 0.2	1008.58	1007.58	1006.33	1004.85	1003.19	1.145	1.01	0.896	0.801	0.723
m1 = 0.3	1013.16	1012.13	1010.84	1009.34	1007.64	1.145	1.011	0.897	0.801	0.726
m1 = 0.4	1017.86	1016.77	1015.43	1013.89	1012.18	1.147	1.013	0.897	0.801	0.73
m1 = 0.5	1022.32	1021.2	1019.84	1018.27	1016.52	1.152	1.027	0.899	0.802	0.73

O [water]
[2]
Conditions	viscosity [mPa·s]
288.15 K	1.145
293.15 K	1.01
298.15 K	0.896
303.15 K	0.801
308.15 K	0.721

O=C(O[C@@H]1Cc2c(O)cc(O)cc2O[C@@H]1c1cc(O)c(O)c(O)c1)c1cc(O)c(O)c(O)c1 + O
[1]
Conditions	mass density, 288.15 K [kg/m3]	mass density, 293.15 K [kg/m3]	mass density, 298.15 K [kg/m3]	mass density, 303.15 K [kg/m3]	mass density, 308.15 K [kg/m3]	viscosity, 288.15 K [mPa·s]	viscosity, 293.15 K [mPa·s]	viscosity, 298.15 K [mPa·s]	viscosity, 303.15 K [mPa·s]	viscosity, 308.15 K [mPa·s]
m1 = 0.0099	1000.71	999.804	998.637	997.228	995.598	1.148	1.014	0.906	0.815	0.739
m1 = 0.02	1002.36	1001.44	1000.26	998.831	997.195	1.158	1.021	0.911	0.82	0.744
m1 = 0.0298	1003.97	1003.04	1001.83	1000.39	998.752	1.171	1.034	0.92	0.827	0.75
m1 = 0.0399	1005.63	1004.68	1003.47	1002.01	1000.36	1.187	1.049	0.934	0.838	0.759
m1 = 0.0499	1007.26	1006.29	1005.05	1003.6	1001.92	1.203	1.062	0.945	0.849	0.769
m1 = 0.0601	1008.94	1007.93	1006.69	1005.22	1003.53	1.222	1.079	0.959	0.86	0.778

[Cl-].[Na+] [sodium chloride] + O
[1]
Conditions	mass density, 288.15 K [kg/m3]	mass density, 293.15 K [kg/m3]	mass density, 298.15 K [kg/m3]	mass density, 303.15 K [kg/m3]	mass density, 308.15 K [kg/m3]	viscosity, 288.15 K [mPa·s]	viscosity, 293.15 K [mPa·s]	viscosity, 298.15 K [mPa·s]	viscosity, 303.15 K [mPa·s]	viscosity, 308.15 K [mPa·s]
m1 = 0.1	1003.32	1002.36	1001.15	999.711	998.058	1.146	1.011	0.892	0.804	0.73
m1 = 0.2	1007.43	1006.42	1005.14	1003.65	1001.98	1.149	1.016	0.901	0.812	0.738
m1 = 0.3	1011.33	1010.27	1008.96	1007.44	1005.73	1.151	1.019	0.91	0.82	0.745
m1 = 0.4	1015.65	1014.53	1013.16	1011.6	1009.85	1.158	1.026	0.917	0.827	0.751
m1 = 0.5	1019.41	1018.24	–	1015.24	1013.48	1.165	1.033	0.925	0.834	0.76

[Cl-].[Li+] [lithium chloride] + O
[1]
Conditions	mass density, 288.15 K [kg/m3]	mass density, 293.15 K [kg/m3]	mass density, 298.15 K [kg/m3]	mass density, 303.15 K [kg/m3]	mass density, 308.15 K [kg/m3]	viscosity, 288.15 K [mPa·s]	viscosity, 293.15 K [mPa·s]	viscosity, 298.15 K [mPa·s]	viscosity, 303.15 K [mPa·s]	viscosity, 308.15 K [mPa·s]
m1 = 0.1	1001.51	1000.58	999.41	998.003	996.382	1.146	1.011	0.898	0.809	0.735
m1 = 0.2	1004	1003.06	1001.87	1000.45	998.848	1.154	1.019	0.909	0.818	0.743
m1 = 0.3	1006.34	1005.37	1004.17	1002.75	1001.13	1.169	1.033	0.921	0.83	0.753
m1 = 0.4	1008.37	1007.4	1006.19	1004.76	1003.15	1.183	1.045	0.932	0.84	0.762
m1 = 0.5	1011.06	1010.07	1008.81	1007.35	1005.79	1.201	1.061	0.948	0.853	0.774
